Data on six compounds can be found in US20080096770A1, “Evaluation of the Toxicity of Pharmaceutical Agents” (priority 2004, published 2008).

What all share (assay type): cell-based
The test system of data set [1] is TK6 human lymphoblastoid cells. The data set is described as follows: Alamar Blue cytotoxicity assay (metabolic cell activity). Conditions: measured at 21 hours, at the optimized cytotoxic concentration (Table 1), aim 40-60% viability decrease. The procedure: (§1) The human lymphoblastoid cell line TK6 (ATCC, Manassas, Va.) was cultured in RPMI 1640 medium (with Glutamax and 10% FHS) at a cell density of 0.2×10^5 to 10×10^5 cells/ml. Cells were routinely subcultured starting from frozen aliquots after […]. For experiments, passage numbers between 3 to 15 were used.
(§2) Cytotoxic concentrations were determined either by measuring cell density on a Sysmex Cell Counter (Sysmex America, Inc., Mundelein, Ill.) or by metabolic cell activity using the Alamar Blue (Serotec Inc., Raleigh, N.C.) cytotoxicity assay. Alamar Blue indicator dye quantitatively measures proliferation in human and other cells. Alamar Blue is a sensitive fluorimetric and calorimetric reagent sensitive to the redox state of the growth medium. Cell density by Sysmex was measured after the 24 h treatment. Cytotoxicity by Alamar Blue was measured 3 hours prior to end of treatment, i.e., at 21 hours. 200 III of cell suspension were mixed with 20 μl of Alamar Blue reagent in a 96-well plate and measured once/hour using a fluorescence plate reader with 544 nm excitation and 612 nm emission filters. Cell suspension samples from the cytotoxicity dilution series were analyzed for cytometry endpoints by Laser Scanning Cytometry.
(§3) TK6 human lymphoblastoid cells were exposed to following treatments (24 hours, 0.15×10^6 cells/ml):
(§4) The six model compounds identified in Table 1 were applied in a dilution series to TK6 cells. The resulting dilution series for each of the six compounds provided individually optimized cytotoxic concentrations for 50% cell death (EC50) as determined by cell density and the Alamar Blue assay. It is possible that cell density and the Alamar Blue assay may not give identical cytotoxicity profiles. Thus, concentrations of the compounds were optimized with the objective to have both cytotoxicity parameters within the range of 40-60% viability decrease. In addition, for representative dilution series several cytometry endpoints were analyzed (BrdU incorporation, KI-67 staining (Histogenex, Edegem, Belgium), propidium iodide staining), although these parameters were not used for concentration selection.

Data set [2] relates to TK6 human lymphoblastoid cells. Particulars: for pEC50: 24 h dilution series, determined by cell density and the Alamar Blue assay, read-out: approximated EC50 (cytotoxic concentration for 50% cell death; equicytotoxic concentration); for Cell Density (±S.D.): 24 h treatment at the optimized cytotoxic concentration (Table 1), aim 40-60% viability decrease. The procedure: as §1, §2, §3
Dose-response determination to provide the doses given in column 4 of Table 1 was carried out with an initial cell density of 0.15×10^6 cells/ml (see Example 1).
as §4
(In general: Resazurin is reduced to fluorescent resorufin, in cell work by metabolically active cells.)

The test system of data set [3] is TK6 human lymphoblastoid cells. Description: Microarray gene expression profiling with PLS-DA / KNN discrimination of cytotoxic versus genotoxic compounds (Examples 1-7). Conditions: 24 h.
Description: Total RNA was isolated after 24 hours of treatment with the agents or control using Qiagen's (Hilden, Germany) RNeasy Mini Kits. Samples were made up of 10 ml TK6 cell suspensions with an approximate cell density of 0.3×10^6 cells/ml. Column-purified RNA was eluted with 40 μl water and quality-checked by UV spectrometry and Agilent's “lab-on-a-chip” technology (RNA nano chip, Bioanalyzer 2100, Agilent Technologies, Santa Clara, Calif.). RNA extraction and purification is described by the manufacturer of the GeneChip system.
Purified total human TK6 RNA was analyzed using the human specific Human Genome U133, 2.0 array (Affymetrix). […] Sequences used in the design of the array were selected from GenBank®, dbEST, and RefSeq.
The resulting primary raw data, the image files (.dat files), were processed using the Microarray Analysis Suite 5 (MAS5) software (Affymetrix). Tab-delimited files were obtained containing data regarding signal intensity (Signal) and categorical expression level measurement (Absolute Call).
The raw data obtained from the GeneChip by MAS5 were imported to GeneSpring 7.2 for analysis. Data were normalized per chip and per gene to the respective median. Genes were annotated according to LocusLink nomenclature (http://www.ncbi.nlm.nih.gov/LocusLink/).
Filtering of the data was performed according to following criteria for each gene:
Fold-change refers to the ratio of genotoxic versus cytotoxic. Since these studies seek robust predictor genes the limit ratios (1.4 and 0.7) were selected in order to excluded genes that show consistent but only small differences. […]
PLS-DA was applied iteratively to the gene expression data with cyto- and genotcoxicity as class variables. […] The final model was validated by response permutation; i.e. the class membership of each sample was randomly attributed, evaluated by the model and contrasted to the solution of the model with the original class membership. […]
The subject of data set [4] is TK6 human lymphoblastoid cells. Conditions: dilution series up to or around the EC50 values (FIG. 1). The procedure:
FIG. 1. Graphical representation of the percentage of cells in G2 phase as a function of dilution of the indicated genotoxic and nongenotoxic compounds (points 1-9), with control samples at points 10-12. An original color image has been converted to grayscale by computer.
as §2
The six model compounds identified in Table 1 were applied in a dilution series to TK6 cells. […]

Setting [5] is: TK6 cells, equicytotoxic concentrations, cytotoxic samples above or at 0, genotoxic samples below 0.

pEC50: −log10 of the molar value. Read-outs that look alike come from different tables or passages of the source.

Take `N.N.[Cl][Pt][Cl]` [cis-Platinum, cis-diammineplatinum(II) dichloride]: the “Alamar Blue (±S.D.)” value in data set [1] is listed as 46 ± 5%. In data set [2], the pEC50 was 5.89 and the “Cell Density (±S.D.)” value is 53 ± 4%.
`[Cl-].[Na+]` [NaCl]: in data set [3] (setting [5]), the “scores of first component t[1] of PLS-DA with all 215 genes (FIG. 4)” value (“scores of first component t[1] of PLS-DA” below) was “above or at t[1]=0”. Also, the “shifts in cell cycle parameters / G2 phase block” value in data set [4] is “no significant shifts in cell cycle parameters”. The “Alamar Blue (±S.D.)” value in data set [1] amounted to 65 ± 5%. For the same compound, the “Cell Density (±S.D.)” value in data set [2] is 30 ± 4%.
Consider `N.N.[Cl][Pt][Cl]` [trans-Platinum, trans-diammineplatinum(II) dichloride], for which, in data set [1], the “Alamar Blue (±S.D.)” value was determined as 36 ± 13%. Besides, the pEC50 in data set [2] (listed as tPt) is 4.48. In addition, in data set [2], the “Cell Density (±S.D.)” value turned out to be 58 ± 7%.
With `CO[C@@]12[C@H](COC(N)=O)C3=C(C(=O)C(C)=C(N)C3=O)N1C[C@@H]1N[C@@H]12` [Mitomycin C], the “Alamar Blue (±S.D.)” value in data set [1] is on record as 48 ± 1%. Besides, in data set [2], the “Cell Density (±S.D.)” value worked out at 53 ± 3%.
As to `COS(C)(=O)=O` [Methyl methanesulfonate], the “scores of first component t[1] of PLS-DA” value in data set [3] (human) was “below t[1]=0”. Further, in data set [1], the “Alamar Blue (±S.D.)” value is on record as 43 ± 8%. Also, in data set [2], the “Cell Density (±S.D.)” value is 44 ± 2%.
Turning to `CO[C@H]1/C=C/O[C@@]2(C)Oc3c(C)c(O)c4c(O)c(c(/C=N/N5CCN(C)CC5)c(O)c4c3C2=O)NC(=O)/C(C)=C\C=C\[C@H](C)[C@H](O)[C@@H](C)[C@@H](O)[C@@H](C)[C@H](OC(C)=O)[C@@H]1C` [Rifampicin], the “scores of first component t[1] of PLS-DA” value in data set [3] (setting [5]) is “above or at t[1]=0”. Also, the “shifts in cell cycle parameters / G2 phase block” value in data set [4] was “no significant shifts in cell cycle parameters”. The “Alamar Blue (±S.D.)” value in data set [1] worked out at 61 ± 8%. Further, in data set [2], the “Cell Density (±S.D.)” value is given as 52 ± 9%.
